# Measurements taken from patent publication US5053431A, “Derivatives of chrysophanol as topoisomerase II inhibitors” (Sloan-Kettering Institute For Cancer Research, priority 1990, dated 1991).
# Where two headings read alike, the source gives them in different places.
# Assays:
# [1] = tested on: mouse leukemia L1210 cells; assay: Inhibition of L1210 cell growth; format: cell-based
# Procedure: Preliminary biological data for inhibiting cell growth of murine L1210 leukemic cells and human acute promyelocytic leukemia cells (HL-60) during 72 h of exposure to the compounds are given in Table IV. The potencies for inhibiting [^3 H]TdR incorporation into DNA in HL-60 cells during the initial 30-min period are also given in Table IV. It is interesting to note that 1,8-di-O-methyl derivatives are uniformly devoid of activity against L1210 leukemic cells. […] The B/A ratios allow an indirect estimation of whether or not cytotoxicities exerted by these analogues are primarily due to initial inhibition of DNA synthesis. […] Whether these analogues, like m-AMSA, ellipticine, or anthracyclines, act by inhibiting DNA topoisomerase II remains to be explored. […] Our preliminary experiments indicate that the compounds arrest cells in the S and/or G2 phases of the cell cycle (unpublished results).
# [2] = tested on: human leukemia HL-60 cells; assay: HL-60 cell growth inhibition (72 h); format: cell-based; conditions: HL-60, 72 h, read-out: ID50, M [HL-60 cell growth (72 h)] (A)
# Procedure: For cell growth inhibition studies, HL-60 cells […]) were grown in RPMI 1640 media at 37° C. in humidified 5% CO2 for 72 h. Viable cells were counted with the trypan blue exclusion method. The fractional inhibitions at four or five concentrations of compounds (in 0.2% DMSO) were analyzed with a median-effect plot (Chou, T.-C., et al., Adv. Enzyme Regul. 22:27 (1984)) by using a computer program. (Chou, J.; Chou, T.-C. Dose-Effect Analyses with Microcomputer. Quantitation of ID50, LD50, Synergism, Antagonism, Low-dose Risk, Receptor-Binding and Enzyme Kinetics; IBM-PC Series, Elsevier-Biosoft, Elsevier Scientific: Cambridge, U.K., (1986)). The median-effect concentration (ID50) was automatically determined for the x intercept of the median-effect plot. Cell growth in the absence of a compound and in the presence of DMSO was used as a control. DMSO (0.2%) alone inhibited cell growth 3.8±1.2% during the 72-h incubation period.
# [3] = tested on: [^3 H]TdR incorporation into DNA in HL-60 cells; assay: Inhibition of [3H]TdR incorporation into DNA in HL-60 cells (initial 30 min); format: cell-based, human; conditions: for B/A: ratio of ID50 for TdR incorporation (B) to ID50 for cell growth (A), HL-60; for IC50: HL-60, initial 30 min exposure, read-out: ID50, M (HL-60 TdR into DNA (B))
# Procedure: For precursor incorporation studies, each compound at four to six concentrations (0.2% DMSO) was preincubated with HL-60 cells (2.5×10^6 /Ml) for 15 min prior to the addition of [^3 H-methyl]TdR (1 μCi, 0.15 nmol/mL) and was incubated for 30 min. […] The incorporation of radioactivity in DNA in the absence of an analogue in the presence of DMSO was used as a control.
# [4] = Table IV, L1210, 72 h exposure, read-out: ID50, M (L1210 cell growth)
# [5] = Mus musculus, Table IV, L1210, 72 h exposure, read-out: ID50, M (L1210 cell growth)
# [6] = Mus musculus, L1210, Table I, read-out: ID50 (the source's name)
# [7] = Mus musculus, L1210, Table I, read-out: ID50 (μg/mL)
# [8] = Mus musculus, L1210, Table II, antileukemic activity, read-out: L1210: ID50
# [9] = Table I, read-out: ID50 (the source's name)
Compound,"IC50 [1, 5]","IC50 ([2]; Homo sapiens, 0.2% DMSO)","IC50 ([3]; Homo sapiens, 0.5 h)","IC50 [1, 6]","IC50 [1, 7]",B/A [3],also measured
"3-(Bromomethyl)-1(and 8)-Hydroxy-8(and 1)-Methoxy-9,10-anthraquinone [Va]",,,,,,1.7,"IC50 [1, 4]: 8.8 µM; IC50 ([2]; 0.2% DMSO): 7.1 µM"
"3-(Dibromomethyl)-1(and 8)-hydroxy-8(and 1)-methoxy-9,10anthraquinone [VIIa]",,,,,,217,"IC50 [1, 4]: 4.2e-05 µM; IC50 ([2]; 0.2% DMSO): 0.06 µM; IC50 [3]: 13 µM"
"6-(Dibromomethyl)-1-(and 8)-hydroxy-3,8(and) 1,3)-dimethoxy-9,10-anthraquinone [VIIb]",,,,,,237,"IC50 [1, 4]: 0.001 µM; IC50 ([2]; 0.2% DMSO): 0.097 µM; IC50 [3]: 23 µM"
"COc1cccc2c1C(=O)c1c(OC)cc(C)cc1C2=O [IIa, 1,8-Dimethoxy-3-methyl-9,10-anthraquinone]",28 µM,10 µM,19 µM,,,,
Cc1cc(O)c2c(c1)C(=O)c1cccc(O)c1C2=O [IIa],,,,> 390 µM,> 100 µg/mL,,
"COc1cc(OC)c2c(c1)C(=O)c1cc(C)cc(OC)c1C2=O [IIb, 1,3,8-Trimethoxy-6-methyl-9,10-anthraquinone]",100 µM,49 µM,21 µM,,,,
Cc1cc(O)c2c(c1)C(=O)c1cc(O)cc(O)c1C2=O [IIb],,,,> 335 µM,> 100 µg/mL,,
"COc1cccc2c1C(=O)c1c(OC)cc(CN(CCO)CCO)cc1C2=O [IXa-2, 3-[N,N-bis(2-hydroxethyl)amino]methyl-1,8-dimethoxy-9,10-anthraquinone]",> 50 µM,490 µM,14 µM,> 49.8 µM,> 21 µg/mL,0.03,"IC50 [1, 8]: > 50 µM"
"COc1cccc2c1C(=O)c1c(OC)cc(CN(CCCl)CCCl)cc1C2=O [IXa-3, 3-[N,N-bis(2-chloroethyl)amino]methyl-1,8-dimethoxy-9,10-anthraquinone]",,,,,,7.8,"ID50 ([1]; Table I): 5.73 µg/mL; IC50 [1, 9]: 12.5 µM; IC50 [1, 4]: 13 µM; IC50 [3]: 14 µM"
CNC(=O)OCCN(CCOC(=O)NC)Cc1cc(OC)c2c(c1)C(=O)c1cccc(OC)c1C2=O [IXa-4],72 µM,9.5 µM,9.4 µM,,,0.99,
"COc1cc(OC)c2c(c1)C(=O)c1cc(CN(CCO)CCO)cc(OC)c1C2=O [IXb-2, 3-[N,N-bis(2-hydroxethyl)amino]methyl-1,6,8-trimethoxy-9,10-anthraquinone]",> 27 µM,100 µM,17 µM,27.7 µM,12.5 µg/mL,0.17,"IC50 [1, 8]: > 27.6 µM"
"COc1cc(OC)c2c(c1)C(=O)c1cc(CN(CCCl)CCCl)cc(OC)c1C2=O [IXb-3, 3-[N,N-bis(2-chloroethyl)amino]methyl-1,8,6-trimethoxy-9,10-anthraquinone]",,,,,,4.5,"ID50 ([1]; Table I): 1.30 µg/mL; IC50 [1, 9]: 2.66 µM; IC50 [1, 4]: 2.7 µM; IC50 ([2]; 0.2% DMSO): 2 µM; IC50 [3]: 8.9 µM"
"COc1cc(OC)c2c(c1)C(=O)c1cc(CNCCO)cc(OC)c1C2=O [IXb-6, 3-[N-(2-hydroxyethyl)amino]methyl-1,6,8-trimethoxy-9,10-anthraquinone]",17 µM,110 µM,26 µM,12.5 µM,5.1 µg/mL,0.24,
"COc1cc(OC)c2c(c1)C(=O)c1cc(CNCCCl)cc(OC)c1C2=O [IXb-7, 3-[N-(2-chloroethyl)amino]methyl-1,6,8-trimethoxy-9,10-anthraquinone]",,,18 µM,,,3.1,"IC50 ([1]; Mus musculus, L1210, 72 h, read-out: ID50, M (L1210 cell growth)): 3.2 µM; IC50 ([2]; Homo sapiens): 5.8 µM"
"O=C1c2cccc(O)c2C(=O)c2c(O)cc(C(Br)Br)cc21 [VIIIa, 3-(Dibromomethyl)-1,8-dihydroxy-9,10-anthraquinone]",0.44 µM,2.5 µM,39 µM,,,15.6,

# Further lines, with some results ahead:
"IC50 [1, 5]","IC50 ([2]; Homo sapiens, 0.2% DMSO)","IC50 ([3]; Homo sapiens, 0.5 h)","IC50 [1, 6]","IC50 [1, 7]",Compound,B/A [3],also measured
9.2 µM,4.4 µM,11 µM,,,"COc1cccc2c1C(=O)c1c(OC)cc(CBr)cc1C2=O [IIIa, 3-bromomethyl-1,8-dimethoxy-9,10-anthraquinone]",2.5,
0.68 µM,84 µM,12 µM,,,"COc1cc(OC)c2c(c1)C(=O)c1cc(CBr)cc(OC)c1C2=O [IIIb, 3-bromomethyl-1,6,8-trimethoxy-9,10-anthraquinone]",0.14,
0.89 µM,2.1 µM,9 µM,,,"COc1cccc2c1C(=O)c1c(OC)cc(C(Br)Br)cc1C2=O [IVa, 3-Dibromomethyl-1,8-dimethoxy-9,10-anthraquinone]",4.3,
41 µM,6 µM,58 µM,,,"COc1cc(OC)c2c(c1)C(=O)c1cc(C(Br)Br)cc(OC)c1C2=O [IVb, 6-(Dibromomethyl)-1,3,8-trimethoxy-9,10-anthraquinone]",9.7,
130 µM,30 µM,19 µM,128 µM,52.3 µg/mL,"CCN(CC)Cc1cc(OC)c2c(c1)C(=O)c1cccc(OC)c1C2=O [IXa-1, 3-[(Diethylamino)methyl]-1,8-dimethoxy-9,10-anthraquinone]",6.3,
1.2 µM,48 µM,29 µM,3.59 µM,1.3 µg/mL,"CCNCc1cc(OC)c2c(c1)C(=O)c1cccc(OC)c1C2=O [IXa-5, 3-(N-ethylamino)methyl-1,8-dimethoxy-9,10-anthraquinone]",0.60,
140 µM,55 µM,46 µM,142 µM,53.7 µg/mL,"COc1cccc2c1C(=O)c1c(OC)cc(CNCCO)cc1C2=O [IXa-6, 3-[N-(2-hydroxyethyl)amino]methyl-1,8-dimethoxy-9,10-anthraquinone]",0.84,
,7.9 µM,4.2 µM,6.91 µM,2.9 µg/mL,"CCN(CC)Cc1cc(OC)c2c(c1)C(=O)c1cc(OC)cc(OC)c1C2=O [IXb-1, 3-(N,N-diethylamino)methyl-1,6,8-trimethoxy-9,10-anthraquinone]",0.53,
9.8 µM,17 µM,13 µM,3.67 µM,1.44 µg/mL,"CCNCc1cc(OC)c2c(c1)C(=O)c1cc(OC)cc(OC)c1C2=O [IXb-5, 3-(N-ethylamino)methyl-1,6,8-trimethoxy-9,10-anthraquinone]",0.76,
0.001 µM,0.19 µM,110 µM,,,"COc1cc(O)c2c(c1)C(=O)c1cc(C(Br)Br)cc(O)c1C2=O [VIIIb, 6-(Dibromomethyl)-3-methoxy-1,8-dihydroxy-9,10-anthraquinone]",579,
8.6 µM,7.1 µM,16 µM,,,"O=C1c2cccc(O)c2C(=O)c2c(O)cc(CBr)cc21 [VIa, 3-bromomethyl-1,8-dihydroxy-9,10-anthraquinone]",2.3,
59 µM,25 µM,340 µM,,,"COc1cc(O)c2c(c1)C(=O)c1cc(CBr)cc(O)c1C2=O [VIb, 3-bromomethyl-1,8-dihydroxy-6-methoxy-9,10-anthraquinone]",13.6,
,3.3 µM,14 µM,5.9 µM,2.33 µg/mL,"O=C1c2cccc(O)c2C(=O)c2c(O)cc(CN(CCO)CCO)cc21 [XIa-2, 3-[N,N-bis(2-hydroxyethyl)amino] methyl-1,8-dihydroxy-9,10-anthraquinone]",4.2,
> 18 µM,210 µM,28 µM,,,CNC(=O)OCCN(CCOC(=O)NC)Cc1cc(O)c2c(c1)C(=O)c1cccc(O)c1C2=O [XIa-4],0.13,
